Data set [1] deals with recombinant luciferase-encoding virions (NL4-3 backbone) pseudotyped with T-tropic HXB-2D envelope. Description: Infection of Jurkat cells with luciferase-encoding virions, HXB-2D envelope. The class given is cell-based, HIV-1. The conditions noted are these: antiviral agent alone 0.05 μM, 72 h. From the text: (§1) Fully infectious viral entities were generated by calcium phosphate transfection of 293T with pNL4-3 vector (T-tropic virions) as described below. Recombinant luciferase-encoding virus particles pseudotyped with the appropriate Env proteins have been used in our series of investigations. […] This test is based on the molecular construct pNL4-3-Luc-E-R+, a vector that carries the gene for firefly luciferase inserted into the nef gene of the pNL4-3 provirus and contains also a frameshift at the 5′ end of env (nt 5950) that prevents expression of the envelope glycoproteins. Progeny viruses were generated by cotransfecting 293T cells with pNL4-3-Luc-E-R+ and a plasmid DNA encoding for the appropriate envelope glycoproteins (T or macrophage-tropic). Briefly, a typical transfection experiment was performed as follow. In brief, 293T cells were plated 24 h before transfection at a concentration of 5×10^5 cells per 3 ml of DMEM into each well of 6-well plates. All solutions were brought to room temperature before use. Immediately before transfection, DNA was added to 25 μl of 2.5M CaCl2 and the volume was completed to 250 μl with distilled water. This solution was then added drop by drop to 250 μl of 2×HBS solution (280 mM NaCl, 50 mM HEPES, 1.5 mM Na2HPO4, pH 7.05) and the resulting mixture was stored at room temperature for 5 min. This DNA-HBS mixture was finally added drop by drop to plated 293T cells before incubation at 37° C. under a 5% CO2atmosphere. At 16 h after transfection, cells were washed twice with 3 ml of PBS and were incubated for an additional 24 h with 3 ml of DMEM supplemented with 10% FBS. Virion-containing supernatants were filtered through a 0.45-μm cellulose acetate membrane (Millipore, Mass.), aliquoted in 200 μl fractions, and were finally frozen at −85° C. until needed. Virus stocks were normalized for virion content using a commercial assay for the viral major core protein p24 (Organon Teknika, Durham, N.C.).
(§2) In brief, 100 μl of cell-free supernatant were discarded from each well and 25 μl of cell culture lysis buffer 5×(125 mM Tris phosphate [pH 7.8], 10 mM DTT, 5% Triton X-100, and 50% glycerol) were added to the wells before incubation at room temperature for 30 min. An aliquot of cell lysate (20 μl) was mixed with 100 μl luciferase assay buffer (20 mM tricine, 1.07 mM (MgCO3)4. Mg(OH)2.5H2O, 2.67 mM MgSO4, 0.1 mM EDTA, 270 μM coenzyme A, 470 μM luciferin, 530 μM ATP, and 33.3 mM DTT). Luciferase activity was monitored using a microplate luminometer (MLX; Dynex Technologies, Chantilly, Va.).
We attempted to define any putative interaction (additive, synergistic or antagonistic) between bpV compounds and currently approved anti-HIV-1 agents (AZT/Zidovudine, 3TC/Epivir/Lamivudine). […]

In data set [2] the test system is T-tropic strain HIV-1NL4-3. Description: Replication of HIV-1 in Sup-T1 cells (p24 in culture supernatants). The class given is cell-based. As to conditions: 10 days, all three tested concentrations. The text has this:
(§3) Fully infectious viral entities were generated by calcium phosphate transfection of 293T with pNL4-3 vector (T-tropic virions) as described below. Recombinant luciferase-encoding virus particles pseudotyped with the appropriate Env proteins have been used in our series of investigations. Such a system provides a highly sensitive and reproducible assay to monitor single-cycle viral infection events. This test is based on the molecular construct pNL4-3-Luc-E-R+, a vector that carries the gene for firefly luciferase inserted into the nef gene of the pNL4-3 provirus and contains also a frameshift at the 5′ end of env (nt 5950) that prevents expression of the envelope glycoproteins. […]
Sup-T1 cells were seeded at a density of 10^5 cells per well (100 μl) in 96-well flat-bottom, plates. […] Cells were incubated for 10 days and kinetics of viral infection was assessed by measuring in cell-free culture supernatants the major core viral p24 protein with the use of a commercial enzymatic assay (Organon Teknika). Putative toxicity of bpV molecules was assessed by adding the tetrazolium salt MTT to Sup-T1 cells that were cultured for 10 days under the constant pressure of the indicated concentrations of bpV[pic] and bpV[phen] molecules.

Data set [3] concerns primary human MDM. Description: MTT toxicity in primary human MDM. The conditions noted are these: 48 h, 10 and 20 μM. The class given is cell-based. From the text:
Target cells used in the present invention include human CD4-expressing T lymphoid Sup-T1, PM1, and Jurkat cells. Moreover, primary human monocyte-derived macrophages (MDM) and peripheral blood mononuclear cells (PBMC′) were also used in the current work, MDM were obtained using a standard technique. In brief, the mononuclear cell fraction was isolated by Ficoll-Hypaque centrifugation. Peripheral blood mononuclear cells were suspended in seeding medium (RPMI 1640+20% fetal calf serum+10% human serum type AB) in tissue culture 48-well plates (3×10^6 cells/ml and 500 μl per well). Five days after the initiation of the cultures, nonadherent cells were removed by rinsing the cultures three times with phosphate buffered saline. Next, such adherent cells were maintained in RPMI 1640 medium supplemented with 20% fetal calf serum.
Putative toxicity of bpV[pic] and bpV[phen] molecules was next assessed by adding the tetrazolium salt MTT to primary human MDM that were cultured for 48 h under the constant pressure of the indicated concentrations of bpV compounds.

For data set [4], the system named is macrophage-tropic recombinant luciferase-encoding HIV-1 particles. Description: Infection of PM1 cells with luciferase reporter virus, macrophage-tropic envelope. Format: cell-based. As to conditions: 5 min pretreatment, 72 h.
Source text: as §3, with “glycoproteins. Progeny viruses were generated by cotransfecting 293T cells with pNL4-3-Luc-E-R+ and a plasmid DNA encoding for the appropriate envelope glycoproteins (T or macrophage-tropic). Briefly, a typical transfection experiment was performed as follow.” for “glycoproteins.”
(§4) In brief, 100 μl of cell-free supernatant were discarded from each well and 25 μl of cell culture lysis buffer 5×(125 mM Tris phosphate [pH 7.8], 10 mM DTT, 5% Triton X-100, and 50% glycerol) were added to the wells before incubation at room temperature for 30 min. […] Luciferase activity was monitored using a microplate luminometer (MLX; Dynex Technologies, Chantilly, Va.). […]

In data set [5] the test system is T-tropic recombinant luciferase-encoding HIV-1 particles. The data set can be described thus: Infection of PM1 cells with luciferase reporter virus, T-tropic envelope. The class given is cell-based. As to conditions: 5 min pretreatment, 72 h.
Source text: as §3, with “glycoproteins. Progeny viruses were generated by cotransfecting 293T cells with pNL4-3-Luc-E-R+ and a plasmid DNA encoding for the appropriate envelope glycoproteins (T or macrophage-tropic). Briefly, a typical transfection experiment was performed as follow.” for “glycoproteins.”
as §4
(Reporter assays use an easily measured gene product as a stand-in for the process of interest.)

Data set [6] concerns recombinant luciferase-encoding virions (NL4-3 backbone) pseudotyped with macrophage-tropic ADA envelope. The data set can be described thus: Infection of primary human MDM with luciferase-encoding virions, ADA envelope. The class given is cell-based, HIV-1. The conditions noted are these: MDM, 10 μM bpV[pic] or 5 μM bpV[phen], pretreatment 5 to 120 min, 48 h.
Source text: as §1, §2

Regarding `Cc1cn([C@H]2C[C@H](N=[N+]=[N-])[C@@H](CO)O2)c(=O)[nH]c1=O` [AZT, Zidovudine, reference compound], in data set [1], the “virus infection (luciferase activity)” value is “decreased”.

As for `O.O.O.OO.OO.[K+].[OH-].[V].c1cnc2c(c1)ccc1cccnc12` [bpV[phen], K[VO(O2)2phen]0.3H2O], the “HIV-1 production (p24)” value in data set [2] is on record as “dramatic decrease of HIV-1 production”. Also, the “toxicity (MTT)” value in data set [3] is listed as “detectable toxic effect”. Moreover, the “infection (luciferase activity)” value in data set [4] and in data set [5] was “dose-dependent inhibition of infection” in each case. In data set [6], the “anti-HIV-1 efficacy (luciferase activity)” value is “maintained over several pretreatment periods”.

The values are drawn from US20040131701A1, “Method to treat infectious diseases and/or to enhance antimicrobial efficacy of drugs” (Virocell Inc., priority 2000, published 2004).
